Like-named read-outs stand apart in the source and are kept apart here.
What was measured:
Type in all cases: in vivo
[1] = test system: rat paw swelling induced by monosodium urate (MSU); assay: rat paw swelling model induced by monosodium urate (MSU); details: for inhibition in vivo at 90 mg/kg / inhibition in vivo at 0.36 mg/kg / inhibition in vivo at 1.8 mg/kg / inhibition in vivo at 9 mg/kg / change in vivo at 90 mg/kg: Rattus norvegicus, po; for inhibition in vivo at 90 mg/kg / inhibition in vivo at 0.36 mg/kg / inhibition in vivo at 1.8 mg/kg / inhibition in vivo at 9 mg/kg: 1 h, read-out: Swelling inhibition rate; for inhibition in vivo at 0.36 mg/kg: dosage 0.36 mg/kg; for inhibition in vivo at 1.8 mg/kg: dosage 1.8 mg/kg; for inhibition in vivo at 9 mg/kg: dosage 9 mg/kg; for change in vivo at 90 mg/kg: read-out: Swelling degree; for Mean volume of paw after administration: 1 h after onset of inflammation (50 μL 2% MSU)
Source text: Gout is a disease unique to human, and gouty arthritis is an inflammatory reaction caused by the deposition of monosodium urate (MSU) in local joint tissues. Since purine metabolism pathways in some mammals such as mice and rabbits are different from those in humans, it is impossible to construct a gouty arthritis model by the method of interfering with purine metabolism disorders, so the most direct method for causing gouty arthritis is to directly inject MSU into the joint cavity of the model animal. The model is only used for simulating local joint inflammation of gout, is suitable for observation of local arthritis symptoms, is a common method for screening anti-inflammatory effects of gout drugs at present, and has the advantages of stability, easy operation and the like. (Reference: Li Na, Hua Long, and Yuan Hui. Research progress of gout animal models [J]. Medical theory and practice, 2016(24).
The anti-gout effect of the compound prepared in the above Example was detected by using a rat paw swelling model induced by monosodium urate (MSU), and the control sample was methylprednisolone.
Experimental method: MSU was used as an inflammatory agent, injected subcutaneously into the hind paws of rats to cause paw swelling, and then the volume of the paws was measured, and the swelling rates and swelling inhibition rates of the treatment group and the control group were compared. On the day of the experiment, the volume of right hind paw (ml) of each rat was measured firstly, and then after the onset of inflammation, the volume of right hind paw was measured so that the difference of volume of paw before and after inflammation was swelling degree, and the swelling inhibition rate of paw (swelling inhibition rate %=(C−T)/C*100%); C=swelling rate of the control group %, and T=swelling rate of the treatment group) was calculated. This method is one of the commonly used methods for screening anti-inflammatory effects of gout drugs, and the model is stable and easy to operate.
(2) One week before the subcutaneous injection of MSU into the feet and soles of the rats, the rats were given different doses of the test drugs, and the drugs were given by gavage once a day, for seven consecutive days. The circumference of the right hind paw was marked and measured before the last administration, and the average value of the two measurements was taken as the standard. 1 h after the last administration, animals in other groups were given 50 μL of 2% MSU in addition to the blank control group, and the paw circumference was measured 1 h after the onset of inflammation. […]

[2] = test system: carrageenan-induced mouse paw swelling; assay: carrageenan-induced mouse paw swelling model; details: for Circumference of the paw after administration: 180 min after onset of inflammation (0.5% carrageenan); for inhibition in vivo at 0.26 mg/kg / inhibition in vivo at 13 mg/kg / inhibition in vivo at 130 mg/kg / change in vivo at 130 mg/kg: Mus musculus, po, 3 h; for inhibition in vivo at 0.26 mg/kg: dosage 0.26 mg/kg; for inhibition in vivo at 0.26 mg/kg / inhibition in vivo at 13 mg/kg / inhibition in vivo at 130 mg/kg: read-out: Swelling inhibition rate; for inhibition in vivo at 13 mg/kg: dosage 13 mg/kg; for change in vivo at 130 mg/kg: read-out: Swelling degree
Procedure: The anti-inflammatory effects of the compounds prepared in the above Examples were detected using a carrageenan-induced mouse paw swelling model, and the control sample was methylprednisolone:
Carrageenan-induced mouse paw swelling model is a classical acute inflammation model commonly used for evaluating or screening anti-inflammatory effects of drugs. When carrageenan is injected into the paw of mice, a series of reactions similar to human acute inflammation such as local capillary dilatation, increased vascular permeability, exudation and edema can be caused, so the model can be widely used in the evaluation of new drugs.
Reference for experimental method: Yang Huan, Cheng Xiao, Wang Yuehua, Du Guanhua. Effects of esculin on the swelling of toes and inflammation induced by carrageenan in mice [J]. Chinese Journal of New Drugs, 2016(25):2322.
On the day of the experiment, the circumference of right hind paw (cm) of each mouse was measured firstly, and then, after the onset of inflammation, the circumference of right hind paw was measured so that the difference of the circumferences of the paws before and after inflammation was swelling degree, and the swelling inhibition rate of paw (swelling inhibition rate %=(C−T)/C*100%); C=swelling rate of the control group %, and T=swelling rate of the treatment group) was calculated.
(2) Gavage administration was performed once a day for seven consecutive days. The circumference of the right hind paw was marked and measured before the last administration, and the average value of the two measurements was taken as the standard. 30 min after the last administration, 20 μL/mice of 0.5% carrageenan was injected into the right hind ankle of the mice to induce inflammation, and the circumference of paw was measured 180 min after the onset of inflammation. […]

ICR mice = details: p.o.
Procedure: The experiment was designed according to the “Technical Guideline for Acute Toxicity Test of Chemical Drugs” issued by the State Food and Drug Administration in March 2005. The doses administered were 4 g/kg, 4.91 g/kg, 6.14 g/kg, 7.68 g/kg, 9.6 g/kg, 12 g/kg, and 15 g/kg (the dose could be adjusted according to the actual test results), 12 ICR mice per dose group. If the administration volume is greater than 0.5 ml, it is better to perform the drug administration in two or more times (Note: according to the national standard GB 15193.3-2014, if multiple drug administrations are required, the time interval should be 4 h to 6 h each time, and the patient should be fasted on the day before drug administration).

[3] = SD rats, 90 mg/kg by gavage once a day for seven days, 1 h after onset of inflammation
[4] = rat, MSU-induced paw swelling, dosage 90 mg/kg
[5] = SD rats, 90 mg/kg by gavage once a day for seven days
[6] = ICR mice, 130 mg/kg by gavage once a day for seven days, 180 min after onset of inflammation
[7] = ICR mice, 130 mg/kg by gavage once a day for seven days
[8] = mouse, carrageenan-induced paw swelling
[9] = mouse, carrageenan-induced paw swelling, dosage 130 mg/kg

| SMILES | inhibition in vivo at 90 mg/kg [1, 3] | inhibition in vivo at 0.36 mg/kg ([1]; rat, MSU-induced paw swelling) | inhibition in vivo at 1.8 mg/kg ([1]; rat, MSU-induced paw swelling) | inhibition in vivo at 9 mg/kg ([1]; rat, MSU-induced paw swelling) | inhibition in vivo at 90 mg/kg [1, 4] | change in vivo at 90 mg/kg [1, 3] | Swelling value [1, 3] | Mean volume of paw after administration [1, 5] | Swelling value [2, 6] | Circumference of the paw after administration [2, 7] | inhibition in vivo at 0.26 mg/kg [2, 8] | inhibition in vivo at 13 mg/kg [2, 8] | inhibition in vivo at 130 mg/kg [2, 9] | change in vivo at 130 mg/kg [2, 6] | inhibition in vivo at 130 mg/kg [2, 6] | Mortality (ICR mice; 4 g/kg) | Mortality (ICR mice; 4.91 g/kg) | Mortality (ICR mice; 6.14 g/kg) | Mortality (ICR mice; 7.68 g/kg) | Mortality (ICR mice; 9.6 g/kg) | other results |
| --- | --- | --- | --- | --- | --- | --- | --- | --- | --- | --- | --- | --- | --- | --- | --- | --- | --- | --- | --- | --- | --- |
| C[C@H]1C[C@@H]2[C@H]([C@@H](O)C[C@@]3(C)[C@H]2CC[C@]3(O)/C(CO)=N/O)[C@@]2(C)C=CC(=NO)C=C12 [Example 1, (6S,8S, 9S, 10R, 11S, 13S, 14S, 17R)-11,17-dihydroxy-17-((E)-2-hydroxy-1-(hydroxyimino)ethyl)-6,10,13-trimethyl-6,7,8,9,10,11,12,13,14,15,16,17-dodecahydro-3H-cyclopentane[α]phenanthrene-3-one oxime] | 99.7% | 12.1% | 45.2% | 68.2% | 97.4% | 0.85% | 0.01 mL | 1.19 mL | 0.01 cm | 1.46 cm | 10.3% | 58.1% | 97.4% | 0.69% | 96.4% | 0/12 | 0/12 | 0/12 | 0/12 | 0/12 | Mortality (ICR mice; 12 g/kg): 0/12; Mortality (ICR mice; 15 g/kg): 0/12 |
| CC(=O)OC/C(=N\O)[C@@]1(O)CC[C@H]2[C@@H]3C[C@H](C)C4=CC(=NO)C=C[C@]4(C)[C@H]3[C@@H](O)C[C@@]21C [Example 2, (2E)-2-((6S,8S,9S,10R,11S,13S,14S,17R)-11,17-dihydroxy-3-(hydroxyimino)-6,10,13-trimethyl-6,7,8,9,10,11,12,13,14,15,16,17-dodecahydro-3H-cyclopentane[α]phenanthrene-17-yl)-2-(hydroxyimino)ethyl acetate] | 99% | 15.1% | 32.1% | 52.1% | 98.2% | 3.23% | 0.04 mL | 1.28 mL | 0.01 cm | 1.43 cm | 15.1% | 63.1% | 96.2% | 0.7% | 96.4% | 0/12 | 0/12 | 0/12 | 0/12 | 1/12 | Mortality (ICR mice; 12 g/kg): 4/12; Mortality (ICR mice; 15 g/kg): 6/12 |
| C[C@]12C=CC(=NO)C=C1CC[C@@H]1[C@@H]2[C@@H](O)C[C@@]2(C)[C@H]1CC[C@]2(O)/C(CO)=N/O [Example 3, (8S,9S,10R,11S,13S,14S,17R)-11,17-dihydroxy-17-((E)-2-hydroxy (hydroxyimino)ethyl)-10,13-dimethyl-6,7,8,9,10,11,12,13,14,15,16,17-dodecahydro-3H-cyclopentane[α]phenanthrene-3-one oxime] | 80.5% | 10.2% | 25.2% | 32.1% | 82.1% | 64.2% | 0.77 mL | 1.97 mL | 0.05 cm | 1.53 cm | 9.12% | 42.3% | 78.2% | 3.38% | 82.5% | 0/12 | 0/12 | 0/12 | 0/12 | 0/12 | Mortality (ICR mice; 12 g/kg): 0/12; Mortality (ICR mice; 15 g/kg): 1/12 |
| CCON=C1C=C[C@@]2(C)C(=C1)[C@@H](C)C[C@@H]1[C@@H]2[C@@H](O)C[C@@]2(C)[C@H]1CC[C@]2(O)/C(CO)=N/OCC [Example 9, (6S,8S,9S,10R,11S,13S,14S,17R,E)-17-((E)-1-(ethoxysimino)-2-hydroxyethyl)-11,17-dihydroxy-6,10,13-trimethyl-6,7,8,9,10,11,12,13,14,15,16,17-dodecahydro-3H-cyclopentane[α]phenanthrene-3-ketoO-ethyl oxime] |  |  |  |  |  |  |  |  |  |  |  |  |  |  |  | 0/12 | 0/12 | 0/12 | 0/12 | 0/12 | Mortality (ICR mice; 12 g/kg): 0/12; Mortality (ICR mice; 15 g/kg): 2/12 |
| C[C@H]1C[C@@H]2[C@H]([C@@H](O)C[C@@]3(C)[C@H]2CC[C@]3(O)C(=O)CO)[C@@]2(C)C=CC(=O)C=C12 [Methylprednisolone, methylprednisolone, reference compound] | 53.8% | 12.3% | 17.6% | 43.5% | 55.4% | 152% | 1.87 mL | 3.1 mL | 0.15 cm | 1.63 cm | 12.1% | 31.4% | 51.2% | 10.1% | 47.6% |  |  |  |  |  |  |
